Source: ChEMBL document CHEMBL5247629, “C-6 fluorinated casuarines as highly potent and selective amyloglucosidase inhibitors: Synthesis and structure-activity relationship study” (Eur J Med Chem, 2022)

Experiments:
[1] = Inhibition of Aspergillus niger amyloglucosidase using p-nitrophenyl glycoside as substrate by spectrometric method
Bos taurus [2] = species on record: Bos taurus; experiment: Inhibition of bovine liver beta-glucosidase using p-nitrophenyl glycoside as substrate at 1000 uM by spectrometric method relative to control; type: tissue-based
[3] = molecular target: Alpha-glucosidase (Saccharomyces cerevisiae S288c) (UniProt P53341+P38158+P07265); experiment: Inhibition of yeast alpha-glucosidase using p-nitrophenyl glycoside as substrate at 1000 uM by spectrometric method relative to control; type: protein assay
Bos taurus [4] = species on record: Bos taurus; experiment: Inhibition of bovine liver beta-glucuronidase using p-nitrophenyl glycoside as substrate at 1000 uM by spectrometric method relative to control; type: tissue-based
[5] = Inhibition of almond beta-glucosidase using p-nitrophenyl glycoside as substrate by spectrometric method; design: species or system Prunus dulcis
Rattus norvegicus = species on record: Rattus norvegicus; experiment: Inhibition of rat intestinal maltase using maltose as substrate at 1000 uM at pH 6.8 by colorimetric method relative to control; type: tissue-based; settings: Intestine
Bos taurus [6] = species on record: Bos taurus; experiment: Inhibition of bovine liver beta-galactosidase using p-nitrophenyl glycoside as substrate at 1000 uM by spectrometric method relative to control; type: tissue-based
[7] = molecular target: T1, Alpha-mannosidase (Canavalia ensiformis) (UniProt C0HJB3); experiment: Inhibition of jack bean alpha-mannosidase using p-nitrophenyl glycoside as substrate at 1000 uM by spectrometric method relative to control
T1 sequence (whole entry): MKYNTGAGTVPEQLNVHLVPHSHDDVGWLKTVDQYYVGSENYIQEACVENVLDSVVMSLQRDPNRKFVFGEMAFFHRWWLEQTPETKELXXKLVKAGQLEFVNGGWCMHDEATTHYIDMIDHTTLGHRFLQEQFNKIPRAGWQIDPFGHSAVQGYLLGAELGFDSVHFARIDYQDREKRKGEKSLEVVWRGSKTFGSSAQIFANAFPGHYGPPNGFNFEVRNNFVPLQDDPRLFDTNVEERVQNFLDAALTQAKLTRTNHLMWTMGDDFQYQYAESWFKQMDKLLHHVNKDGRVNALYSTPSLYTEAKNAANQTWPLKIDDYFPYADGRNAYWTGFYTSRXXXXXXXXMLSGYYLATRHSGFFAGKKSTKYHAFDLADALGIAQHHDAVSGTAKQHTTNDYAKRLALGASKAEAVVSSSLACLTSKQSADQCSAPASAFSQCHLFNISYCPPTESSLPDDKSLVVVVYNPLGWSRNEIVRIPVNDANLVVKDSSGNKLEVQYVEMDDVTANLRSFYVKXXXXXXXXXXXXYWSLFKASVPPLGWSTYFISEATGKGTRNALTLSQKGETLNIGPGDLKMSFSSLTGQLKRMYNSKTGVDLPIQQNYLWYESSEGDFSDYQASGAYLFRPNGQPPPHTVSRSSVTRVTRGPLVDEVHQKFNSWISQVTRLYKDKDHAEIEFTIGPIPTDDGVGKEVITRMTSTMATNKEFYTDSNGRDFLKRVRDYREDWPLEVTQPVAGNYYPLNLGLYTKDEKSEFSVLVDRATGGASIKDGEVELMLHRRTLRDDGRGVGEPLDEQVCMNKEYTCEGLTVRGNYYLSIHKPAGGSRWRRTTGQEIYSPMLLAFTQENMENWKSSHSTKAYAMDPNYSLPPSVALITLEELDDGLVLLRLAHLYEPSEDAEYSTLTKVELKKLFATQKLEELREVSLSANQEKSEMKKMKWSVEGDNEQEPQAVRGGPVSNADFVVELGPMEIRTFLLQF

[8] = molecular target: T2, Tissue alpha-L-fucosidase (Bos taurus) (UniProt Q2KIM0); experiment: Inhibition of bovine kidney alpha-L-fucosidase using p-nitrophenyl glycoside as substrate at 1000 uM by spectrometric method relative to control; type: tissue-based
T2 sequence (whole entry): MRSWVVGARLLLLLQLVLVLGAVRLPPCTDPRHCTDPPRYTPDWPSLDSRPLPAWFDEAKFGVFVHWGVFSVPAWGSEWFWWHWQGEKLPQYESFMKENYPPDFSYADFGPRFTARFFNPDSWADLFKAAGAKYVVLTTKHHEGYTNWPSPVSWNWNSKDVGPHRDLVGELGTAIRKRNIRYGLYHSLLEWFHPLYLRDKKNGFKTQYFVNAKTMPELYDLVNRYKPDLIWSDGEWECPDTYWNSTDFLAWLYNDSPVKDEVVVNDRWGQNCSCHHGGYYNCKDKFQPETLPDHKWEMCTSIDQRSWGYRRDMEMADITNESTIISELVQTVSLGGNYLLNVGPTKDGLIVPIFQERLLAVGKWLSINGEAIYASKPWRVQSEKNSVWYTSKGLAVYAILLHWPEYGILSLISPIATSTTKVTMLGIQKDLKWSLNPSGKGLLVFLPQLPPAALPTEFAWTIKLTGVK

[9] = Inhibition of Penicillium decumbens alpha-L-rhamnosidase using p-nitrophenyl glycoside as substrate by spectrometric method
Escherichia coli = experiment: Inhibition of Escherichia coli beta-glucuronidase using p-nitrophenyl glycoside as substrate at 1000 uM by spectrometric method relative to control
[10] = molecular target: Alpha-galactosidase (Coffea arabica) (UniProt Q42656); experiment: Inhibition of coffee bean alpha-galactosidase using p-nitrophenyl glycoside as substrate at 1000 uM by spectrometric method relative to control
Alpha-galactosidase (Coffea arabica), sequence (Q42656 16-378 limits assumed): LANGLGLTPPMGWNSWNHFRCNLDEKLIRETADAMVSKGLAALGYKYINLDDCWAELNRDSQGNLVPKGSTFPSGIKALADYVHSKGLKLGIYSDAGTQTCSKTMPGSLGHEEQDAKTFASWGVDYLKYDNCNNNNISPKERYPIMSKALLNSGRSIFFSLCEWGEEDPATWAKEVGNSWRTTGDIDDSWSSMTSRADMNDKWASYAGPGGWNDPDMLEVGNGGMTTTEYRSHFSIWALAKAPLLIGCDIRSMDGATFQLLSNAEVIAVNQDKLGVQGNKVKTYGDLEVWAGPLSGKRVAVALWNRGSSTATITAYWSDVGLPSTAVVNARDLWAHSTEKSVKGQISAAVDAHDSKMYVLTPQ

Oryza sativa = experiment: Inhibition of rice alpha-glucosidase using p-nitrophenyl glycoside as substrate at 1000 uM by spectrometric method relative to control
Sus scrofa = species on record: Sus scrofa; experiment: Inhibition of porcine kidney alpha/alpha-trehalase using p-nitrophenyl glycoside as substrate at 1000 uM by spectrometric method relative to control; type: tissue-based
Helix pomatia = experiment: Inhibition of snail beta-mannosidase using p-nitrophenyl glycoside as substrate at 1000 uM by spectrometric method relative to control
[11] = Inhibition of rat intestinal maltase using maltose as substrate at pH 6.8 by colorimetric method; type: tissue-based, Intestine
Prunus dulcis = experiment: Inhibition of almond beta-glucosidase using p-nitrophenyl glycoside as substrate at 1000 uM by spectrometric method relative to control
Penicillium decumbens = experiment: Inhibition of Penicillium decumbens alpha-L-rhamnosidase using p-nitrophenyl glycoside as substrate at 1000 uM by spectrometric method relative to control
Alpha-glucosidase = Alpha-glucosidase (Saccharomyces cerevisiae S288c, UniProt P53341+P38158+P07265); experiment: Inhibition of yeast alpha-glucosidase using p-nitrophenyl glycoside as substrate by spectrometric method; type: protein assay
[12] = Inhibition of porcine kidney alpha/alpha-trehalase using p-nitrophenyl glycoside as substrate by spectrometric method; design: species or system Sus scrofa
[13] = Inhibition of bovine liver beta-glucosidase using p-nitrophenyl glycoside as substrate by spectrometric method; type: tissue-based, Bos taurus
[14] = Inhibition of bovine liver beta-galactosidase using p-nitrophenyl glycoside as substrate by spectrometric method; design: species or system Bos taurus
[15] = Inhibition of rice alpha-glucosidase using p-nitrophenyl glycoside as substrate by spectrometric method; design: species or system Oryza sativa

| SMILES | IC50 [1] | pIC50 [1] | inhibition (Bos taurus [2]) | inhibition [3] | inhibition (Bos taurus [4]) | IC50 [5] | inhibition (Bos taurus [6]) | inhibition [7] | inhibition [8] | inhibition (Escherichia coli) | inhibition [10] | inhibition (Oryza sativa) | inhibition (Sus scrofa) | inhibition (Helix pomatia) | IC50 [11] | inhibition (Prunus dulcis) | inhibition (Penicillium decumbens) | IC50 [12] | IC50 [15] | also measured |
| --- | --- | --- | --- | --- | --- | --- | --- | --- | --- | --- | --- | --- | --- | --- | --- | --- | --- | --- | --- | --- |
| OC[C@@H]1[C@@H](O)[C@H](O)[C@H]2[C@H](O)[C@H](F)CN21 | 0.14 µM | 6.854 | 43.8% | 12% | 11.6% | 395 µM | 47.6% | 5.8% | 7.6% | 4.3% | 1.7% | 12.7% | 15.6% | 5.9% | – | – | – | – | – | inhibition (Rattus norvegicus): 33%; IC50 [9]: 488 µM |
| OC[C@@H]1[C@@H](O)[C@H](O)[C@H]2C[C@H](O)CN12 | 42 µM | 4.377 | 13.9% | – | 14% | – | 25.4% | 2.2% | 0% | 4.3% | 4.5% | 12.4% | – | 2.4% | 248 µM | 10.5% | 11.2% | 22 µM | – | IC50 (Alpha-glucosidase): 466 µM |
| OC[C@@H]1[C@@H](O)[C@H](O)[C@H]2[C@H](O)C(F)(F)CN21 | 2.1 µM | 5.678 | – | 24% | 15.9% | 266 µM | – | 6.3% | 6.8% | 2.6% | 1.2% | – | 5.9% | 0% | 167 µM | – | 5.6% | – | 48 µM | IC50 [13]: 747 µM; IC50 [14]: 390 µM |
| OC[C@@H]1[C@@H](O)[C@H](O)[C@H]2C[C@@H](O)CN12 | 40 µM | 4.398 | 21.9% | 44.1% | 10.8% | – | 5.9% | 6.3% | 14.8% | 20.5% | 4.4% | – | – | 3.6% | 72 µM | 13.6% | 6.3% | 124 µM | 234 µM | – |
